PubChem BioAssay AID1996
In brackets after ≈: the same amount, converted by molar mass.

Conditions: buffer; pH 7.4; 200.0 µM

Compound | solubility kinetic [µg/mL]
Cc1cccc(NP(=O)(Oc2ccccc2)Oc2ccccc2)c1C | < 0.8
N#Cc1ccc(COC(=O)c2ccccn2)cc1 | 30 (≈ 126 µM)
COc1ccc(N=CC2=C(O)CC(C)(C)CC2=O)cc1OC | > 45.5
CCC(C)Nc1nc2c(c(=O)[nH]c(=O)n2C)n1CCCc1ccccc1 (stereo not given) | 36.9 (≈ 104 µM)
Cc1nc(-c2cccs2)sc1C(=O)O | > 33.8
CCC(=O)c1cn(CC(=O)Nc2c(C)cccc2C)c2ccccc12 | < 0.4
CCCCCCC1CC(=O)NC(=S)N1 (stereo not given) | 28.4 (≈ 133 µM)
Cc1ccc(C(=O)NCC(=O)OCC(=O)Nc2cc(S(=O)(=O)N3CCOCC3)ccc2Cl)s1 | > 77.4
CN1c2ccc(Cl)cc2C(=O)NC1C1CC=CCC1 (stereo not given) | 3.4 (≈ 12.3 µM)
CN(CC(=O)Nc1c(Cl)cccc1Cl)C(=O)CCC1CCCC1 | 53.4 (≈ 149 µM)
Cc1ccc(C(=O)N2c3ccccc3CC2C)o1 (stereo not given) | 31.6 (≈ 131 µM)
O=C(O)CSc1cn(Cc2ccccc2)c2ccccc12 | > 44.6
CCCCn1c(O)c(C(=O)/C=C/c2ccc3c(c2)OCO3)c(=O)[nH]c1=O | > 53.8
Cc1ccc(C2Nc3ccccc3C(=O)N2CCCN2CCOCC2)cc1 (stereo not given) | 50.3 (≈ 138 µM)
CC(C(=O)N1CCCC1)N1CCN(S(=O)(=O)c2ccccc2)CC1 (stereo not given) | 47.1 (≈ 134 µM)
Clc1ccc(Cl)c(-c2nc(-c3ccncc3)no2)c1 | < 0.2
COc1ccc(CN2CCN(C(=O)C3CCN(C(=O)Nc4ccccc4)CC3)CC2)cc1OC | 60.6 (≈ 130 µM)
COc1cccc(N2CCN(c3nc(C)cc(=O)[nH]3)CC2)c1 | 44.6 (≈ 148 µM)
O=C(Cc1ccc(Br)cc1)N1CCc2ccccc2C1 | 3.9 (≈ 11.8 µM)
CCCCOc1ccc(-c2c(C#N)c(N)[nH]c(=S)c2C#N)cc1 | 35.6 (≈ 110 µM)

Compound | solubility kinetic [µg/mL]
O=C(Cc1ccccc1)Oc1ccc([N+](=O)[O-])cc1 | > 38.6
Cn1cnnc1SCC(=O)Nc1ccccc1Oc1ccccc1 | > 51.1
COc1ccc(OC)c(Nc2nc(-c3ccncc3)nc3ccccc23)c1 | < 0.2
COc1ccc(CCN=C(N)NS(=O)(=O)c2ccc(C)c(C)c2)cc1OC | > 58.7
CCOc1ccc(C2=CSC3=NCCN23)cc1Cl | 25 (≈ 89 µM)
Cc1ccc2cc(NC(=O)CC(CC(=O)O)c3ccccc3)ccc2n1 (stereo not given) | 47 (≈ 135 µM)
Cc1ccc(C(=O)Nc2cccc3ccccc23)o1 | 25.9 (≈ 103 µM)
Cc1cc(N)nc(SCC(=O)N2C(C)CCCC2C)n1 (stereo not given) | 38.3 (≈ 130 µM)
N#CCCC(CCC#N)C1=NCCc2ccccc21 | 36.4 (≈ 145 µM)
Cc1cc(C(=O)N2CCOCC2)c(C)o1 | > 31.4
Cc1ccc(C(NC(=O)Nc2ccccn2)C(Cl)(Cl)Cl)cc1F (stereo not given) | < 0.3
Cc1cc(C)c(NC(=O)CC(=O)c2ccccc2)c(Cl)c1 | 3.5 (≈ 11.6 µM)
Cc1cccc(N=C2NC(=O)/C(=C/c3cccn3C)S2)c1 | 1 (≈ 3.36 µM)
Nc1nc(Cl)cc(N2CCCC2)n1 | > 29.8
Cc1ccc(C)c(OCCC(=O)OCC(=O)NC(=O)NC2CCCCC2)c1 | 3.9 (≈ 10.4 µM)
CCOc1ccc(NC(=O)CN(C)C(=O)C2COc3ccccc3O2)cc1OCC (stereo not given) | > 62.2
CC(=O)C1=C(c2ccccc2)NC(=O)NC1c1ccc(O)c(Cl)c1 (stereo not given) | > 51.4
CCn1c(C(O)c2cc(OC)ccc2OC)nc2ccccc21 (stereo not given) | > 46.9
O=C1N(Cc2ccccc2)c2ccccc2C12OCCO2 | 28.9 (≈ 103 µM)
CN(CC(=O)OCC(N)=O)S(=O)(=O)c1ccc(Cl)cc1 | > 48.1

Compound | solubility kinetic [µg/mL]
Cc1cccc(N2CC(C(=O)NC3CCCCCC3)CC2=O)c1C (stereo not given) | > 49.3
CCCCCC(=O)Nc1ccc(S(=O)(=O)Nc2nccc(C)n2)cc1 | > 54.4
COc1cccc(NC(=O)COc2ccccc2)c1 | > 38.6
CN(c1ccc(O)cc1)c1nc(-c2cccnc2)cs1 | 3.2 (≈ 11.3 µM)
Cc1cc2c(NCCc3ccccc3)ncnc2s1.Cl | 8.7
O=C(COC(=O)COc1cc(Cl)c(Cl)cc1Cl)NC1CC1 | 23.6 (≈ 66.9 µM)
COc1ccccc1C(=O)NC1CCN(C(=O)Nc2ccc(C)cc2)CC1 | 46.8 (≈ 127 µM)
O=C1COc2ccc(C(=O)COC(=O)CCOc3ccccc3)cc2N1 | 10.1 (≈ 28.4 µM)
O=C(NC(=S)Nc1cccnc1)c1cccs1 | 10.4 (≈ 39.5 µM)
Cc1cc(C)c(NC(=O)Nc2ccc3c(c2)OCO3)c(C)c1 | 0.6 (≈ 2.01 µM)
O=C(Cc1ccccc1)NC(Cc1ccc(Cl)cc1)C(=O)O (stereo not given) | > 47.7
NS(=O)(=O)c1ccc(N2CCN(S(=O)(=O)Cc3ccccc3)CC2)nc1 | 4.1 (≈ 10.3 µM)
CC(C)N1C(=O)CCC1C(=O)NCc1ccc(F)cc1Cl (stereo not given) | > 46.9
O=Cc1ccc(Oc2ncccn2)cc1 | > 30
CCOC(=O)c1cc2c(cn1)[nH]c1ccccc12 | 7.5 (≈ 31.2 µM)
O=C(Cn1c(CO)nc2ccccc21)NCc1ccc2c(c1)OCO2 | > 50.9
O=C(Cn1ccc(=O)[nH]c1=O)NCCO | > 32
CCn1c(=O)c(C(=O)CC#N)c(N)n(Cc2ccccc2)c1=O | 4.1 (≈ 13.1 µM)
O=C1CCC2=C(CCCC2=O)N1 | 24.2 (≈ 146 µM)
CN1CCCN(C(=O)c2cccc3ccccc23)CC1 | > 40.3
